Active and inactive are the calls of the source.
How the values were obtained:
[1] = tested on: Streptococcus; test: GAS bacterial viability reduction – luminescence, BacTiter-Glo, strain UMAA2166, counter-screen for streptokinase expression inhibitor project, dose response (AID 2477); format: functional, organism-based
[2] = target: T1, Streptokinase A (Streptococcus pyogenes serotype M1, UniProt P10520); test: Absorbance Microorganism-Based Dose Response Follow up to Identify Inhibitors of Streptokinase Expression. [Related pubchem assays: 1677 (Project Summary), 1915, 1914, 1902 (Retest at Dose), 1900 (Counter Screen), 1662 (Primary HTS)]; format: functional, Streptococcus pyogenes M1 GAS
T1 sequence (P10520 whole entry): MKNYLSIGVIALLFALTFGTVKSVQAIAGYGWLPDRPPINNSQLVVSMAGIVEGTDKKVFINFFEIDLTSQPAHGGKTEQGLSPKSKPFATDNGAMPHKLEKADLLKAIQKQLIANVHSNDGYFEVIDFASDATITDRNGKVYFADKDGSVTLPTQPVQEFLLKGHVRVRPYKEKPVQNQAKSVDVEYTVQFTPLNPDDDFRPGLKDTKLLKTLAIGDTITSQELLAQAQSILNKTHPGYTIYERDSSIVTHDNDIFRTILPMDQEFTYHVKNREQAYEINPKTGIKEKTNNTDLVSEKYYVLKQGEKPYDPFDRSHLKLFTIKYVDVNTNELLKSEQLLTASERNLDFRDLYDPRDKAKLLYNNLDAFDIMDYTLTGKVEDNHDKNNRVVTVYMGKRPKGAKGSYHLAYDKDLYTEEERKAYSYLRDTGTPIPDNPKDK

[3] = target: Peroxisome proliferator-activated receptor gamma/Nuclear receptor coactivator 3 (Homo sapiens, UniProt P37231); format: functional;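 note: agonist potency for raising coactivator recruitment to the receptor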
Peroxisome proliferator-activated receptor gamma/Nuclear receptor coactivator 3, sequence (P37231 whole entry): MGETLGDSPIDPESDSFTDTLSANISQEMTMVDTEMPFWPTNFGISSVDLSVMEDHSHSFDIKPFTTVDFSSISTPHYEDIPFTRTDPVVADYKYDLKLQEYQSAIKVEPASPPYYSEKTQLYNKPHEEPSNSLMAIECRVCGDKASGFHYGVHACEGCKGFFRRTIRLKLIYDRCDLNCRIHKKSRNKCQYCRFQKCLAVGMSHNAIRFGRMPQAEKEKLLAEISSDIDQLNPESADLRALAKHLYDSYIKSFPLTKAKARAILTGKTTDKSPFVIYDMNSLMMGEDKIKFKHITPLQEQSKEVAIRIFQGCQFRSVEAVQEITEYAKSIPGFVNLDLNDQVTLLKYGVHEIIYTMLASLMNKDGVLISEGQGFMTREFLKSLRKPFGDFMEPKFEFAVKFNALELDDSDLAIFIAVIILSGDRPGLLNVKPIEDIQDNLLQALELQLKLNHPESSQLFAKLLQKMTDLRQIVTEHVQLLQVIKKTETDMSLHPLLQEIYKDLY
Peroxisome proliferator-activated receptor gamma/Nuclear receptor coactivator 3, sequence (Q9Y6Q9 whole entry, further chain): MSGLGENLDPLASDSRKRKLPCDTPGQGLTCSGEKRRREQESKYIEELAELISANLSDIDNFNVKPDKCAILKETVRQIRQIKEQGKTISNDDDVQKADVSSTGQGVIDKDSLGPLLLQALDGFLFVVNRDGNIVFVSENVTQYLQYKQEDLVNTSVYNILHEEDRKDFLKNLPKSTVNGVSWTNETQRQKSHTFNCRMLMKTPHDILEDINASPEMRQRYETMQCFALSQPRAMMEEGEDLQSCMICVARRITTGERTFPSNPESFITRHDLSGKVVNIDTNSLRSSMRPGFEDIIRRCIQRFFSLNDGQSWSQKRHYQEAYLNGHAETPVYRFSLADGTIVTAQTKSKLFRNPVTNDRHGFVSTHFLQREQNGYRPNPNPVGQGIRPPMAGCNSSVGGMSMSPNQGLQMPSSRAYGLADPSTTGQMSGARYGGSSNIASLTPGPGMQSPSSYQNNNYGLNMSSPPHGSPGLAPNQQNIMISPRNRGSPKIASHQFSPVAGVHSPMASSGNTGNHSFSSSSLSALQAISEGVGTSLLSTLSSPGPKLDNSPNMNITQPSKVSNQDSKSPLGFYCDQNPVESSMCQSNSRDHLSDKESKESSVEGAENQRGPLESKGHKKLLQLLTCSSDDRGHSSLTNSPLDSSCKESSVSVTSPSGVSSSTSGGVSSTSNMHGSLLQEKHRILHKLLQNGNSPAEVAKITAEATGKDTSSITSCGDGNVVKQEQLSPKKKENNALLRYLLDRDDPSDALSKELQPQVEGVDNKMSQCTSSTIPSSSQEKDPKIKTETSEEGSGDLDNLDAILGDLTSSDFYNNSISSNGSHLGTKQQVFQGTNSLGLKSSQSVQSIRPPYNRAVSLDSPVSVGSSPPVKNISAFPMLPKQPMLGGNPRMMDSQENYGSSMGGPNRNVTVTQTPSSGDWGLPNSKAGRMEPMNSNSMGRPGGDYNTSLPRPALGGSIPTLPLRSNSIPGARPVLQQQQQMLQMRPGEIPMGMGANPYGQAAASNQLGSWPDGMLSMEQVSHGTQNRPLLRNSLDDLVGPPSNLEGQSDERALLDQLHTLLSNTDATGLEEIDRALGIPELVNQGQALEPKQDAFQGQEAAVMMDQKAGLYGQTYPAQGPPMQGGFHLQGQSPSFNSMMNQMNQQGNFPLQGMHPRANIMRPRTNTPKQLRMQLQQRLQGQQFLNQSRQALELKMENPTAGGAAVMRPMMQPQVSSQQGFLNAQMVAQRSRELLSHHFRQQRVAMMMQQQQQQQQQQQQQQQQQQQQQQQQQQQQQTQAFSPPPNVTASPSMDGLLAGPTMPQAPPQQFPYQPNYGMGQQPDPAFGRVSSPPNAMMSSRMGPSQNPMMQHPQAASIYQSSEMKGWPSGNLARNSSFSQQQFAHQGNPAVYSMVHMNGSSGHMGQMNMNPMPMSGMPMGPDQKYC

[4] = target: Peroxisome proliferator-activated receptor gamma/Nuclear receptor coactivator 1 (Homo sapiens, UniProt P37231); format: functional;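 note: agonist potency as compounds enhance coactivator SRC-1 recruitment to PPARgamma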
[5] = target: Mothers against decapentaplegic homolog 3 (Homo sapiens, UniProt P84022); test: inhibitors of SMAD-driven TGF-beta signaling – dose response (AID 715); format: functional
Mothers against decapentaplegic homolog 3, sequence (P84022 whole entry): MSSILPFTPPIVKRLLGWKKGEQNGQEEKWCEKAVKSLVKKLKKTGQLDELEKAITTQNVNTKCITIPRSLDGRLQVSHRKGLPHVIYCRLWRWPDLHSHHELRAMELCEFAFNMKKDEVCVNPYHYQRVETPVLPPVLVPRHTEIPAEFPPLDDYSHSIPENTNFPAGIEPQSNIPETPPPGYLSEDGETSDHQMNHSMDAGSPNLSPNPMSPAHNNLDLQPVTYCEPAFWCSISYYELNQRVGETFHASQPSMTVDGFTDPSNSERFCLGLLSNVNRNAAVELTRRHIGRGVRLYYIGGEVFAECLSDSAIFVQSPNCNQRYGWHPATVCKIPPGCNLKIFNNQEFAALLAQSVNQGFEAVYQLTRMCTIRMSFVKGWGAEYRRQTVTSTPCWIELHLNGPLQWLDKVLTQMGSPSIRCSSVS

[6] = target: Peroxisome proliferator-activated receptor gamma/Nuclear receptor coactivator 2 (Homo sapiens, UniProt P37231); format: functional;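 note: agonist potency for raising coactivator recruitment to the receptor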
[7] = target: NS3 (Hepatitis C virus, UniProt A3EZJ3); test: PubChem AID 2173; parameters: species or system Hepacivirus hominis
NS3, sequence (A3EZJ3 whole entry): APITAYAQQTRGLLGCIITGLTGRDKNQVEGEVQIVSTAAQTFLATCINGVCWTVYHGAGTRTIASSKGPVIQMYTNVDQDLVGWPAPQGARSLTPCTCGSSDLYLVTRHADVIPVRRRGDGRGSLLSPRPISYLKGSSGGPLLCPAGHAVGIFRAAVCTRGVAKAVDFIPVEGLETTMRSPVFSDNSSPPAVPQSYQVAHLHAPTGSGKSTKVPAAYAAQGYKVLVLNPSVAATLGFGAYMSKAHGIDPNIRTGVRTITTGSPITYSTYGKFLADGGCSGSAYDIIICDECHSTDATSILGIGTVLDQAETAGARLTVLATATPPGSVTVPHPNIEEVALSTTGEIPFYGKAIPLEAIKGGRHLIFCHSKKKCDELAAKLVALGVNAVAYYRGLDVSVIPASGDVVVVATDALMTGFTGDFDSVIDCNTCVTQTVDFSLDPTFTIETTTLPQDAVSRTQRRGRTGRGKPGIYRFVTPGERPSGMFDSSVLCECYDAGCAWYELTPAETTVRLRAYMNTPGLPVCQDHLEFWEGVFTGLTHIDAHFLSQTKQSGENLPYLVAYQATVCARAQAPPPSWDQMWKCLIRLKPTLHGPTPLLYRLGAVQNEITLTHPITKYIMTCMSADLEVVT

[8] = mitochondrial function rescue without frataxin homolog – Friedreich's ataxia, plus single-dose screen, dose response (AID 1465); format: functional;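 note: yeast depleted of Yfh1p frataxin homolog grown on glycerol needing respiration; WST-1 tetrazolium dye reduction as measure of cellular dehydrogenase metabolic activity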
[9] = alpha-synuclein stem-loop luciferase translation blockers – H4 neuroglioma cells, luminescence, confirmation (AID 1988); format: functional, cell-based
[10] = luciferase reporter signal reduction – luminescence, H4-C neuroglioblastoma cells, dose response (AID 2458); format: functional, cell-based;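 note: H4 neuroglioblastoma cells stably carrying a luciferase reporter gene fusion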
[11] = target: T1, Streptokinase A; test: viability-normalized secreted streptokinase activity reduction – plasminogen activation absorbance, OD405, dose response (AID 1914); format: functional, Streptococcus pyogenes M1 GAS;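 note: secreted streptokinase activity via plasminogen activation per viability signal from cell pellet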
[12] = alpha-synuclein stem-loop translation blockers – luminescence, H4 neuroglioblastoma cells, dose confirmation, confirmation (AID 2454); format: functional, cell-based;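 note: H4 neuroglioblastoma cells carrying an alpha-synuclein 5'UTR luciferase reporter; potency for inhibition of the luciferase signal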
[13] = tested on: Streptococcus sp. 'group A'; test: Streptococcus pyogenes SK(-)GAS viability under kanamycin – luminescence, BacTiterGlo, confirmation, counter-screen for streptokinase expression inhibitor project, dose response (AID 1900); format: functional, organism-based
[14] = luciferase reporter signal suppression in cells – H4 neuroglioma cells, luminescence, dose response (AID 1990); format: functional, cell-based
[15] = tested on: Streptococcus; test: GAS UMAA2166 growth inhibition – luminescence, BacTiterGlo, counter-screen for streptokinase expression inhibitor project, dose response (AID 1915); format: functional, organism-based;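 note: potency for reduction of bacterial viability or growth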
[16] = cells; format: functional, cell-based
[17] = target: T2, Estrogen receptor (Homo sapiens, UniProt P03372);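 note: potency for inhibiting coactivator peptide recruitment to the receptor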
T2 sequence (P03372 whole entry): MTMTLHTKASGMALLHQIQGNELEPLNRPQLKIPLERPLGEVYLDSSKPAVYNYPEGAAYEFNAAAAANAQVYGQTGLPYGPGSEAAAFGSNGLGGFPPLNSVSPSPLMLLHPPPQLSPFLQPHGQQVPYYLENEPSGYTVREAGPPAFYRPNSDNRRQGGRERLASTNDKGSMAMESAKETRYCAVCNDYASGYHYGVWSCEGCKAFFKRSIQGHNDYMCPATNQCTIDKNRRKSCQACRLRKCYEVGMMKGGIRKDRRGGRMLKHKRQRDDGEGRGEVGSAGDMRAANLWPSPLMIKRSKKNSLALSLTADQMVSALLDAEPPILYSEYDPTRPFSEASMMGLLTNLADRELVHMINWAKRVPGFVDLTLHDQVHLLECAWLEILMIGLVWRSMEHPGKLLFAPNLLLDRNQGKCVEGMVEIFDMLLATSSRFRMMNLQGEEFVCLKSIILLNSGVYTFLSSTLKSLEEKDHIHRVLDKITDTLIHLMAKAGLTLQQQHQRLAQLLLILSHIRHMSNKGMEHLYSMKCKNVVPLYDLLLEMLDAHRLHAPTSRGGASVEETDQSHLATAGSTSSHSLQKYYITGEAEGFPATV

[18] = target: Sphingosine 1-phosphate receptor 3 (Homo sapiens, UniProt Q99500); test: Dose response cell-based high throughput screening assay for antagonists of the Sphingosine 1-Phosphate Receptor 3 (S1P3). [Related pubchem assays: 1429, 485 ]; format: functional
Sphingosine 1-phosphate receptor 3, sequence (Q99500 whole entry): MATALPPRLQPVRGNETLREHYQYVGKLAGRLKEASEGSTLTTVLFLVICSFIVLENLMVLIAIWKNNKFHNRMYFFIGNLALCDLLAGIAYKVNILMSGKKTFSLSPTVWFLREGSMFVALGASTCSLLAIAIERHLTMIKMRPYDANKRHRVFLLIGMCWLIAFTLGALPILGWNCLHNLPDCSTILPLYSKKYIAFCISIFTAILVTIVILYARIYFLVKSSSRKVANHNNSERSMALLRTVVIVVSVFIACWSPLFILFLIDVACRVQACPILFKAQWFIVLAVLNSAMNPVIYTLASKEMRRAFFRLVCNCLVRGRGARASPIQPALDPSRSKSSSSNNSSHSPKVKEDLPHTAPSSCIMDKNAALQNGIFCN

[19] = target: 5-hydroxytryptamine receptor 1E (Homo sapiens, UniProt P28566); test: Counterscreen assay for S1P3 antagonists: Dose response cell-based high throughput screening assay to identify antagonists of the 5-Hydroxytryptamine Receptor Subtype 1E (5HT1E). [Related pubchem assays: 1429, 485 ]; format: functional
5-hydroxytryptamine receptor 1E, sequence (P28566 whole entry): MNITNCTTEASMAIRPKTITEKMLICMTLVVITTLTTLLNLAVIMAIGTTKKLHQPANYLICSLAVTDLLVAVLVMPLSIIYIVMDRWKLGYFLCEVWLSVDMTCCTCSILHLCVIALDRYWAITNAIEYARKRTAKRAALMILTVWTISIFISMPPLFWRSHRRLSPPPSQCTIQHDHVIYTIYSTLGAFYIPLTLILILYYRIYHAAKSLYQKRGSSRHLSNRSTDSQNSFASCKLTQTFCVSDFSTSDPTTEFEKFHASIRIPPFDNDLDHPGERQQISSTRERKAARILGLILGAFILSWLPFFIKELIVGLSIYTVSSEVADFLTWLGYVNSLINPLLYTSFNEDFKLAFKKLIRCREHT

For `COc1ccc(Sc2ccc(NC(=O)c3cccc(Cl)c3)cc2C#N)cc1`, the EC50 [1] was > 500 µM (not active) and the EC50 [2] was 8.99 µM (active).

For `CCCCOC(=O)CSc1nc(N)c(C#N)c(-c2ccc(OCC)cc2)c1C#N`, the EC50 [3] was > 79.4 µM (not active), the EC50 [4] was 11.2 µM (not active) and the IC50 [5] was 11 µM (active). For the same molecule, the EC50 [6] was 9.42 µM (active).

In the case of `Cc1cc(O)c(C(=O)/C=C/c2c(F)c(F)c(F)c(F)c2F)c(=O)o1`, the IC50 [7] is reported as 8.85 µM (active).

In the case of `Cn1cccc1/C=C1/SC(=S)N(CC(=O)O)C1=O`, the EC50 [8] is reported as > 100 µM (active).

In the case of `CN1Cc2cc(C(=O)c3cc(Cl)cc(CSc4ncccn4)c3O)cnc2NC1=O`, the EC50 [9] is reported as < 0.1 µM (active), the EC50 [10] is reported as 0.449 µM (active) and the EC50 [11] is reported as > 150 µM (not active). For the same molecule, the EC50 [12] was 0.799 µM (active), the EC50 [13] was 13.8 µM (active) and the EC50 [14] was < 0.1 µM (active). For the same molecule, the EC50 [15] was > 150 µM (not active), the EC50 [16] was 0.812 µM (active) and the IC50 [17] was > 50 µM (not active).

With `O=C(CSc1nnc(-c2cccnc2)n1Cc1ccco1)N1c2ccccc2Sc2ccccc21` the IC50 [18] was > 50 µM (not active) and the IC50 [19] was > 50 µM (not active).
